Data reported in US6506885B1, “Monoclonal antibodies to the drug tilmicosin and a method for detecting the same” (The United States of America as represented by the …, priority 2001, dated 2003).

Legend:
[1] = bovine lung tissue; after serum levels dropped below therapeutic concentrations; cited from earlier work
[2] = system: monoclonal antibody 9-5-3; assay: competitive indirect ELISA (ciELISA) on (XII) coated plates, antibody 9-5-3; format: binding
Protocol: (§1) The supernatant culture fluid from the cloned hybridomas also may be screened to select for those producing antibodies having a high affinity for tilmicosin. Affinity may be measured using solid phase immunoassays such as ELISA, RIA, or equilibrium dialysis using labeled tilmicosin. In the preferred embodiment, affinity is measured by competitive indirect ELISA as described in the Examples, and is conducted at a final antibody concentration (dilution from the tissue culture supernatant) to give 50% of maximal binding to a tilmicosin- or 23-deoxo-23-demycinosyl tilmicosin-carrier complex coated substrate or assay well (i.e., the concentration of the antibody that results in 50% of the plateau activity in direct binding ELISA). […] Following incubation and washing, bound antibody in the wells is determined in the same manner as the db-ELISA. Percent inhibition may be calculated as (1−B/Bo)×100, where B is the optical density (OD) of a well with a competitor and Bo is the mean OD of the wells without competitor (control). […]
(§2) The cells which were positive in the initial screening and expanded were analyzed by competitive indirect ELISA (ciELISA) below for inhibition of antibody binding in the presence of free (unconjugated) tilmicosin on (XII) coated antigen plates. […]

[3] = system: monoclonal antibody 47-1-1; assay: competitive indirect ELISA (ciELISA) on (XII) coated plates, antibody 47-1-1; format: binding
Protocol: as §1, §2

[4] = system: monoclonal antibody 37-4-5 (Til-1); assay: competitive indirect ELISA (ciELISA) on (XII) coated plates, antibody 37-4-5; format: binding
Protocol: as §1, §2

[5] = system: monoclonal antibody 9-7-7; assay: competitive indirect ELISA (ciELISA) on (XII) coated plates, antibody 9-7-7; format: binding
Protocol: as §1, §2

[6] = system: monoclonal antibody 9-1-4 (Til-5); assay: competitive indirect ELISA (ciELISA) on (XII) coated plates, antibody 9-1-4; format: binding
Protocol: as §1, §2

[7] = system: monoclonal antibody 37-2-6; assay: competitive indirect ELISA (ciELISA) on (XII) coated plates, antibody 37-2-6; format: binding
Protocol: as §1, §2

[8] = (IC50 of Tilmicosin)/(IC50 of other Compound) X100, — = no cross-reactivity observed

| Compound | time lung concentrations exceed the P. haemolytica MIC after dosage [1] | % Competition (percentage of cross-reactivity) [2, 8] [%] | IC50, pmol/well ([2]; free compound as competitor) [pmol/well] | % Competition (percentage of cross-reactivity) [3, 8] [%] | IC50, pmol/well ([3]; free compound as competitor) [pmol/well] | % Competition (percentage of cross-reactivity) [4, 8] [%] | IC50, pmol/well ([4]; free compound as competitor) [pmol/well] | % Competition (percentage of cross-reactivity) [5, 8] [%] | IC50, pmol/well ([5]; free compound as competitor) [pmol/well] | % Competition (percentage of cross-reactivity) [6, 8] [%] | IC50, pmol/well ([6]; free compound as competitor) [pmol/well] | % Competition (percentage of cross-reactivity) [7, 8] [%] | IC50, pmol/well ([7]; free compound as competitor) [pmol/well] |
| --- | --- | --- | --- | --- | --- | --- | --- | --- | --- | --- | --- | --- | --- |
| CCC1OC(=O)CC(O)C(C)C(OC2OC(C)C(O)C(N(C)C)C2O)C(CCN2CC(C)CC(C)C2)CC(C)C(=O)C=CC(C)=CC1COC1OC(C)C(O)C(OC)C1OC (stereo not shown) [Tilmicosin] | at least 72 hours | – | – | – | – | – | – | – | – | – | – | – | – |
| CC1CNCC(C)C1 (stereo not shown) [3,5-dimethyl piperidine] | – | 72 | 35.3 | 17 | 44.2 | 19 | 61.8 | 26 | 40.6 | 18 | 41.5 | 24 | 44.2 |
